{
  "source": "patent US6271242A",
  "about": "“Method for treating cancer using a tyrosine protein kinase inhibitor” (Bristol-Myers Squibb Co., priority 1992, dated 2001)",
  "key": {"PC12 cells [1]": {"tested_on": "PC12 cells", "assay": "NGF-induced neuronal differentiation (neurite outgrowth) of PC12 cells", "assay_type": "cell-based", "conditions": "Rattus norvegicus, PC-12, 72 h; 50 ng/ml NGF, three days; read-out: IC50, block of appearance of neuritic processes in PC12 cells exposed to NGF"}, "PC12 cells [2]": {"tested_on": "PC12 cells", "assay": "FGF-induced neurite formation of PC12 cells", "assay_type": "cell-based, rat", "conditions": "concentrations as high as 300 nM; 50 ng/ml acidic and basic FGFs, three days"}, "PC12 cells [3]": {"tested_on": "PC12 cells", "assay": "Proliferation of PC12 cells", "assay_type": "cell-based, rat", "conditions": "submicromolar concentrations; data not shown"}, "gp140^trk": {"tested_on": "gp140^trk", "assay_type": "cell-based, rat", "conditions": "100 nM K252a, 100 ng/ml NGF, PC12 cells"}, "PDGF receptor": {"tested_on": "PDGF receptor", "assay": "PDGF-induced tyrosine phosphorylation of PDGF receptor in NIH3T3 cells (Western blot)", "assay_type": "cell-based", "conditions": "100 nM K252a, 100 ng/ml PDGF"}, "human EGF receptor": {"tested_on": "human EGF receptor", "assay": "EGF-induced tyrosine phosphorylation of EGF receptor in F19-91 cells (Western blot)", "assay_type": "cell-based", "conditions": "100 nM K252a, 100 ng/ml EGF"}, "gp145^trkB": {"tested_on": "gp145^trkB", "assay": "BDNF-induced tyrosine phosphorylation of gp145^trkB in Z52-17 cells (Western blot)", "assay_type": "cell-based", "conditions": "100 nM K252a, 100 ng/ml BDNF"}, "gp145^trkC": {"tested_on": "gp145^trkC", "assay": "NT-3-induced tyrosine phosphorylation of gp145^trkC in R4-31 cells (Western blot)", "assay_type": "cell-based", "conditions": "100 nM K252a, 100 ng/ml NT-3, R4-31 (RA-31) cells"}, "[4]": {"tested_on": "NIH3T3 cells co-transfected with pDM69 (gp140^trk) and pLTRSNGF (NGF)", "assay": "Focus formation of NIH3T3 cells co-transfected with gp140^trk and NGF plasmids", "assay_type": "cell-based", "conditions": "100 nM K252a"}, "[5]": {"tested_on": "NIH3T3 cells co-transfected with pFRK44 (gp145^trkB) and pLL42 (BDNF)", "assay": "Focus formation of NIH3T3 cells co-transfected with gp145^trkB and BDNF plasmids", "assay_type": "cell-based", "conditions": "100 nM K252a"}, "[6]": {"tested_on": "NIH3T3 cells co-transfected with pFL20 (gp145^trkC) and pLL43 (NT-3)", "assay": "Focus formation of NIH3T3 cells co-transfected with gp145^trkC and NT-3 plasmids", "assay_type": "cell-based", "conditions": "100 nM K252a; pFL20 (gp145^trkC) + pLL43 (NT-3)"}, "Z99-541 cells": {"tested_on": "Z99-541 cells", "assay": "Reversion of transformed phenotype, gp140^trk + NGF transformed NIH3T3 cells", "assay_type": "cell-based"}, "Z82-432 cells": {"tested_on": "Z82-432 cells", "assay": "Reversion of transformed phenotype, gp145^trkB + BDNF transformed NIH3T3 cells", "assay_type": "cell-based"}, "Z82-711 cells": {"tested_on": "Z82-711 cells", "assay": "Reversion of transformed phenotype, gp145^trkC + NT-3 transformed NIH3T3 cells", "assay_type": "cell-based"}, "pp60^v-src [7]": {"tested_on": "pp60^v-src", "assay": "In vitro tyrosine protein kinase assay of pp60^v-src immunoprecipitates (C74-321 cells)", "assay_type": "biochemical", "conditions": "concentrations as high as 10 μM"}, "pp60^v-src [8]": {"tested_on": "pp60^v-src", "assay": "Tyrosine phosphorylation of pp60^v-src in C74-321 cells (Western blot)", "assay_type": "cell-based", "conditions": "concentrations as high as 1 μM"}, "106-632 cells": {"tested_on": "106-632 cells", "assay": "Reversion of morphologic transformation, trk-transformed NIH3T3 cells", "assay_type": "cell-based", "conditions": "100 nM K252a, as little as 36 hours"}, "B38-941 cells": {"tested_on": "B38-941 cells", "assay": "Reversion of morphologic transformation, trk5-transformed NIH3T3 cells", "assay_type": "cell-based", "conditions": "100 nM K252a, as little as 36 hours"}, "[9]": {"assay": "Morphology and toxicity, v-src-transformed NIH3T3 cells", "assay_type": "cell-based", "conditions": "mouse, v-src transformed nih3t3 cells; v-src transformed cells, no signs of morphologic reversion; data not shown; read-out: concentration at which toxic effect appears"}, "C74-321 cells": {"tested_on": "C74-321 cells", "assay": "Morphology and toxicity, v-src-transformed NIH3T3 cells", "assay_type": "cell-based"}, "[10]": {"assay": "Morphology and toxicity, v-fms-transformed NIH3T3 cells", "assay_type": "cell-based", "conditions": "mouse, v-fms transformed nih3t3 cells; v-fms transformed cells, no signs of morphologic reversion; data not shown; read-out: concentration at which toxic effect appears"}, "C51-642 cells": {"tested_on": "C51-642 cells", "assay": "Morphology and toxicity, v-fms-transformed NIH3T3 cells", "assay_type": "cell-based"}, "NIH3T3 cells": {"tested_on": "NIH3T3 cells", "assay": "Toxicity and growth of untransfected NIH3T3 and NIH3T3-derived cells"}},
  "note": "“Also recorded” adds a separate entry of the source.",
  "data": [
    {"compound": "COC(=O)[C@@]1(O)C[C@H]2O[C@]1(C)n1c3ccccc3c3c4c(c5c6ccccc6n2c5c31)C(=O)NC4", "note": "(single isomer, unassigned) [K252a, (8R*,9S*,11S*)-(-)-9-hydroxy-9-methoxycarbonyl-8-methyl-2,3,9,10-tetrahydro-8,11-epoxy-1H,8H,11H-2,7b,11a-triazadibenzo(a,g) cycloocta(c,d,e)triinden-1-one]", "values": [
      {"measurement": "IC50", "setting": "PC12 cells [1]", "value": "~40", "unit": "nM"},
      {"measurement": "effect on induction of neurite formation by FGF", "setting": "PC12 cells [2]", "value": "no detectable effect"},
      {"measurement": "inhibitory effect on proliferation of PC12 cells", "setting": "PC12 cells [3]", "value": "did not have a significant inhibitory effect"},
      {"measurement": "NGF-induced phosphorylation of gp140^trk on tyrosine residues", "setting": "gp140^trk", "value": "completely abolished"},
      {"measurement": "phosphorylation on tyrosine residues of the PDGF receptor", "setting": "PDGF receptor", "value": "no effect"},
      {"measurement": "phosphorylation on tyrosine residues of the EGF receptor", "setting": "human EGF receptor", "value": "no effect"},
      {"measurement": "phosphorylation on tyrosine residues of ligand-activated gp145^trkB", "setting": "gp145^trkB", "value": "completely abolished"},
      {"measurement": "phosphorylation on tyrosine residues of ligand-activated gp145^trkC", "setting": "gp145^trkC", "value": "completely abolished"},
      {"measurement": "Transforming Activity", "setting": "[4]", "value": 0, "unit": "Foci per 10^5 cells"},
      {"measurement": "Transforming Activity", "setting": "[5]", "value": 0, "unit": "Foci per 10^5 cells"},
      {"measurement": "Transforming Activity", "setting": "[6]", "value": 0, "unit": "Foci per 10^5 cells"},
      {"measurement": "reversion of transformed phenotype", "setting": "Z99-541 cells; 30 nM K252a, data not shown", "value": "much more limited effect"},
      {"measurement": "reversion of transformed phenotype", "setting": "Z99-541 cells; 100 nM K252a, 2 to 4 days", "value": "completely reverted"},
      {"measurement": "reversion of transformed phenotype", "setting": "Z82-432 cells; 30 nM K252a, data not shown", "value": "much more limited effect"},
      {"measurement": "reversion of transformed phenotype", "setting": "Z82-432 cells; 100 nM K252a, 2 to 4 days", "value": "completely reverted"},
      {"measurement": "reversion of transformed phenotype", "setting": "Z82-711 cells; 30 nM K252a, data not shown", "value": "much more limited effect"},
      {"measurement": "reversion of transformed phenotype", "setting": "Z82-711 cells; 100 nM K252a, 2 to 4 days", "value": "completely reverted"},
      {"measurement": "inhibitory effect on catalytic activity of pp60^v-src", "setting": "pp60^v-src [7]", "value": "did not have any significant inhibitory effect"},
      {"measurement": "inhibitory effect on levels of tyrosine phosphorylation of pp60^v-src", "setting": "pp60^v-src [8]", "value": "did not have any inhibitory effect"},
      {"measurement": "reversion of transformed phenotype", "setting": "106-632 cells", "value": "completely reverted"},
      {"measurement": "reversion of transformed phenotype", "setting": "B38-941 cells", "value": "completely reverted"},
      {"measurement": "MCC", "setting": "[9]", "value": "~1000", "unit": "nM"},
      {"measurement": "effect on morphology of v-src transformed cells", "setting": "C74-321 cells", "value": "no effect"},
      {"measurement": "effect on transformed phenotype of v-src cells", "setting": "C74-321 cells; concentrations as high as 1 μM", "value": "no effect"},
      {"measurement": "MCC", "setting": "[10]", "value": "~1000", "unit": "nM"},
      {"measurement": "effect on morphology of v-fms transformed cells", "setting": "C51-642 cells", "value": "no effect"},
      {"measurement": "effect on transformed phenotype of v-fms cells", "setting": "C51-642 cells; concentrations as high as 1 μM", "value": "no effect"},
      {"measurement": "effect on growth properties / proliferation rate of the cells", "setting": "NIH3T3 cells; 300 nM or lower", "value": "not observed; also recorded: no significant effect"},
      {"measurement": "detectable toxic effects", "setting": "NIH3T3 cells; concentrations as high as 300 nM, NIH3T3-derived cells", "value": "nor elicit any detectable toxic effects"},
      {"measurement": "toxicity to cells", "setting": "NIH3T3 cells; micromolar concentrations, particularly untransfected NIH3T3 cells, data not shown", "value": "considerably toxic"}
    ]}
  ]
}
